# Columns and labels:
# [1] = biological target: T1, Human immunodeficiency virus type 1 reverse transcriptase (Human immunodeficiency virus 1, UniProt Q72547); assay: Inhibition of wild type HIV-1 Reverse transcriptase
# [2] = tested on: Human immunodeficiency virus 1; assay: Antiviral activity against wild-type HIV-1 IIIB infected in human MT4 cells assessed as reduction in virus-induced cytopathic effect incubated for 5 days by MTT assay; assay type: functional, organism-based; conditions: Human immunodeficiency virus 1, IIIB, MT4, 120 h
# MT4 [3] = assay: Cytotoxicity against human MT4 cells assessed as reduction in cell growth after 5 days by MTT assay; assay type: functional; conditions: MT4, 120 h, time 5 day
# Reverse transcriptase [4] = biological target: T2, Reverse transcriptase (Human immunodeficiency virus 1, UniProt Q9WKE8, K103N); assay: Binding affinity to HIV-1 reverse transcriptase K103N mutant assessed as inhibition constant
# [5] = Binding affinity to HIV-1 reverse transcriptase Y181L mutant assessed as inhibition constant; set-up: species or system Human immunodeficiency virus 1
# [6] = tested on: Human immunodeficiency virus 1; assay: Antiviral activity against wild type HIV-1 NL4-3 infected in human MT4 cells assessed as reduction in viral replication measured for 72 hrs by ELISA analysis; assay type: functional, organism-based; conditions: Human immunodeficiency virus 1, NL4-3, MT4, 72 h
# [7] = tested on: Human immunodeficiency virus 1; assay: Antiviral activity against HIV-1 NL4-3 harboring infected Y181C mutant infected in human MT4 cells assessed as reduction in viral replication; assay type: functional, organism-based; conditions: Human immunodeficiency virus 1, NL4-3, MT4
# [8] = tested on: Human immunodeficiency virus 1; assay: Antiviral activity against HIV-1 NL4-3 harboring infected K103N mutant infected in human MT4 cells assessed as reduction in viral replication; assay type: functional, organism-based; conditions: Human immunodeficiency virus 1, NL4-3, MT4
# [9] = tested on: Human immunodeficiency virus 1; assay: Antiviral activity against NNRTI-resistant HIV-1 harboring E138K mutant infected in human MT4 cells assessed as protection against virus-induced cytopathic effect by MTT assay; assay type: functional, organism-based; conditions: Human immunodeficiency virus 1, MT4
# [10] = tested on: Human immunodeficiency virus 1; assay: Antiviral activity against wild type HIV-1 NL4-3 infected in human MT4 cells assessed as reduction in viral replication; assay type: functional, organism-based; conditions: Human immunodeficiency virus 1, NL4-3, MT4; read-out: EC50
# [11] = tested on: Human immunodeficiency virus 1; assay: Antiviral activity against HIV-1 NL4-3 harboring infected Y188L mutant infected in human MT4 cells assessed as reduction in viral replication; assay type: functional, organism-based; conditions: Human immunodeficiency virus 1, NL4-3, MT4
# Reverse transcriptase [12] = biological target: T2, Reverse transcriptase; assay: Inhibition of HIV-1 Reverse transcriptase K103N mutant
# MT4 [13] = assay: Cytotoxicity against human MT4 cells assessed as reduction in […] incubated for 4 days by MTT assay; assay type: functional; conditions: MT4, 96 h, time 4 day
# [14] = tested on: Human immunodeficiency virus 1; assay: Antiviral activity against HIV1 IIIB infected in human MT4 cells assessed as reduction in virus-induced cytopathic effect incubated for 4 days by MTT assay; assay type: functional, organism-based; conditions: Human immunodeficiency virus 1, IIIB, MT4, 96 h
# [15] = Selectivity index, ratio of CC50 for human MT4 cells to EC50 for antiviral activity against HIV1 infected in human MT4 cells; assay type: toxicity, cell-based; conditions: read-out: Ratio CC50/EC50
# [16] = tested on: Human immunodeficiency virus 1; assay: Antiviral activity against wild type HIV-1 IIIB infected in human MT4 cells assessed as protection against virus-induced cytopathic effect incubated for 5 days by MTT assay; assay type: functional; conditions: Human immunodeficiency virus 1, IIIB, MT4, 120 h; time 5 day; read-out: ED50 (the source's name)
# MT4 [17] = assay: Cytotoxicity against human MT4 cells assessed as reduction in cell growth incubated for 5 days by MTT assay; assay type: functional; conditions: MT4, 120 h, time 5 day
# [18] = tested on: Human immunodeficiency virus 1; assay: Antiviral activity against HIV-1 3B infected in human MT4 cells assessed as reduction in viral replication incubated for 5 days by MTT assay; assay type: functional, organism-based; conditions: Human immunodeficiency virus 1, 3B, MT4, 120 h
# [19] = Cytotoxicity against human PBMC cells; assay type: toxicity, cell-based
# [20] = tested on: Human immunodeficiency virus 1; assay: Antiviral activity against HIV-1 IIIB infected in human C8166 cells assessed as reduction in viral replication measured for 3 days; assay type: functional; conditions: Human immunodeficiency virus 1, IIIB, C8166, 72 h; time 3 day; read-out: ED50 (the source's name)
# [21] = Toxicity in African green monkey Vero cells assessed as reduction in cell viability incubated for 72 hrs by MTT assay; assay type: cell-based; conditions: chlorocebus sabaeus, read-out: TD50
# Human alphaherpesvirus 1 = assay: Antiviral activity against HSV-1 infected in Vero cells by plaque reduction assay; assay type: functional; conditions: Human alphaherpesvirus 1, Vero; read-out: ED50 (the source's name)
# [22] = Toxicity in human C8166 cells assessed as reduction in cell viability incubated for 72 hrs by MTT assay; assay type: cell-based; conditions: read-out: TD50
# MT4 [23] = assay: Cytotoxicity against human MT4 cells; assay type: functional
# [24] = tested on: Human immunodeficiency virus 1; assay: Antiviral activity against wild type HIV-1 IIIB infected in human MT4 cells assessed as protection against virus-induced cytopathic effect incubated for 72 hrs by MTT assay; assay type: functional, organism-based; conditions: Human immunodeficiency virus 1, IIIB, MT4, 72 h
# [25] = tested on: Human immunodeficiency virus 1; assay: Antiviral activity against HIV-1 infected in human MT4 cells; assay type: functional, organism-based; conditions: Human immunodeficiency virus 1, MT4
# [26] = biological target: T1, Human immunodeficiency virus type 1 reverse transcriptase; assay: Inhibition of recombinant HIV-1 reverse transcriptase associated RNA-dependent DNA polymerase activity
smiles,measurement,setting,value
CCCNc1nc(C(C)c2c(F)cccc2F)c(C)c(=O)[nH]1 (stereo not drawn),IC50,[1],30 nM
same,EC50,[2],20 nM
same,CC50,MT4 [3],> 200 µM
CCN(C)c1nc(C(C)c2c(F)cccc2F)c(C)c(=O)[nH]1 (stereo not drawn),Ki,Reverse transcriptase [4],500 nM
same,Ki,[5],4000 nM
same,EC50,[6],3 nM
Cc1c(C(C)c2c(F)cccc2F)nc(N(C)C(C)C)[nH]c1=O (stereo not drawn),Ki,Reverse transcriptase [4],80 nM
same,Ki,[5],1190 nM
same,EC50,[6],5 nM
Cc1c(C(C)c2c(F)cccc2F)nc(N(C)Cc2ccc([N+](=O)[O-])cc2)[nH]c1=O (stereo not drawn),EC50,[7],814 nM
same,EC50,[8],518 nM
same,EC50,[9],518 nM
same,EC50,[10],10 nM
COc1ccc(CN(C)c2nc(C(C)c3c(F)cccc3F)cc(=O)[nH]2)cc1 (stereo not drawn),EC50,[7],1610 nM
same,EC50,[8],3 nM
same,EC50,[11],10 nM
same,IC50,Reverse transcriptase [12],1050 nM
same,EC50,[10],2 nM
COc1ccc(CN(C)c2nc(C(C)c3c(F)cccc3F)c(C)c(=O)[nH]2)cc1 (stereo not drawn),EC50,[7],80 nM
same,EC50,[8],102 nM
same,EC50,[9],102 nM
same,EC50,[10],3 nM
CCCN(C)c1nc(C(C)c2c(F)cccc2F)c(C)c(=O)[nH]1 (stereo not drawn),Ki,Reverse transcriptase [4],170 nM
same,Ki,[5],1430 nM
same,EC50,[6],5 nM
CCC(C)Sc1nc(O)cc(Cc2cccc3ccccc23)n1 (stereo not drawn),CC50,MT4 [13],> 300 µM
same,EC50,[14],330 nM
same,selectivity ratio,[15],> 909
CCOC1CSc2nc(=O)c(CC)c(Cc3cc(C)cc(C)c3)n21 (stereo not drawn),EC50,[16],700 nM
CCC(C)Sc1nc(Cc2cc(C)cc(C)c2)c(Br)c(=O)[nH]1 (stereo not drawn),CC50,MT4 [17],153 µM
same,EC50,[18],6700 nM
C=CCc1c(Cc2cc(C)cc(C)c2)nc(SCC2OCCC(C)O2)[nH]c1=O (stereo not drawn),CC50,MT4 [17],> 100 µM
same,EC50,[18],550 nM
Nc1cc(Cl)nc(Sc2ccccc2)n1,CC50,[19],207 µM
COc1ccc(CNc2nc(C(C)c3c(F)cccc3F)cc(=O)[nH]2)cc1 (stereo not drawn),EC50,[7],60 nM
same,EC50,[8],2230 nM
same,EC50,[11],> 5000 nM
same,IC50,Reverse transcriptase [12],5000 nM
same,EC50,[10],3 nM
CCCCOc1nc(Cc2ccc(OC)cc2)cc(=O)[nH]1,EC50,[20],25 µg/mL
same,CC50 at 72 h,[21],100 µg/mL
same,EC50,Human alphaherpesvirus 1,50 µg/mL
same,CC50 at 72 h,[22],100 µg/mL
COc1cccc(Sc2nc(Cc3cc(C)cc(C)c3)c(C)c(=O)[nH]2)c1,CC50,MT4 [23],> 100 µM
same,EC50,[24],1600 nM
CCc1c(Cc2cc(C)cc(C)c2)nc2n(c1=O)COCCS2,EC50,[16],1600 nM
CCC(C)Sc1nc(Cc2cc(C)cc(C)c2)cc(=O)[nH]1 (stereo not drawn),CC50,MT4 [17],150 µM
same,EC50,[18],1200 nM
COc1ccc(Cc2cc(N)nc(OC)n2)cc1,EC50,[20],12.5 µg/mL
same,CC50 at 72 h,[21],50 µg/mL
same,EC50,Human alphaherpesvirus 1,25 µg/mL
same,CC50 at 72 h,[22],50 µg/mL
Cc1c(C(C)c2c(F)cccc2F)nc(NC2CCCCC2)[nH]c1=O (stereo not drawn),IC50,[1],35 nM
same,EC50,[2],20 nM
same,CC50,MT4 [3],90 µM
CSCCSc1nc(C2(c3c(F)cccc3F)CC2)c(C)c(=O)[nH]1,EC50,[25],5 nM
same,CC50,MT4 [23],14 µM
same,selectivity ratio,[15],2330
Cc1ccccc1Cc1nc(SC2CCCCC2)[nH]c(=O)c1C,CC50,MT4 [13],> 304 µM
same,EC50,[14],600 nM
same,selectivity ratio,[15],> 506
same,IC50,[26],1300 nM
CCc1c(Cc2cc(C)cc(C)c2)n2c(nc1=O)SCCOC2,EC50,[16],600 nM
COc1ccc(C2CC2CNc2nc(C(C)c3c(F)cccc3F)cc(=O)[nH]2)cc1 (stereo not drawn),EC50,[7],100 nM
same,EC50,[8],130 nM
same,EC50,[11],> 5000 nM
same,IC50,Reverse transcriptase [12],880 nM
same,EC50,[10],1 nM
